Literature values as cited in patent US8124123B2, “Controlled release azithromycin solid dosages forms” (Dow Pharmaceutical Sciences, Inc., priority 2007, dated 2012).

Tests used:
[1] = oral administration; reported with single 1000 mg dose and 1500 mg over 5 days

CC[C@H]1OC(=O)[C@H](C)[C@@H](O[C@H]2C[C@@](C)(OC)[C@@H](O)[C@H](C)O2)[C@H](C)[C@@H](O[C@@H]2O[C@H](C)C[C@H](N(C)C)[C@H]2O)[C@](C)(O)C[C@@H](C)CN(C)[C@H](C)[C@@H](O)[C@]1(C)O [azithromycin, 9-deoxo-9a-aza-9a-methyl-9a-homoerythromycin A]
gastrointestinal side effects [1]: dose-related incidence of gastrointestinal side effects | fraction of azithromycin released into the stomach that may be destroyed (about one hour in the stomach, low pH environment): approximately one third | chemical stability at pH 1 (pH found in stomach contents following a meal): chemically unstable
